Test [1] deals with BMNCs. Description: Histochemistry (Wright-Giemsa) and immunocytochemistry for erythroid cells (TER-119). Type of test: cell-based, mouse. The conditions noted are these: 7 days culture. The protocol:
In order to investigate whether QGR can stimulate the differentiation of hematopoietic stem cells into erythroid cells, the morphology of cells was observed and immunocytochemistry against TER-119, the marker of erythroid progenitors, was carried out. BMNCs were harvested 7 days after incubation with either rEpo (3 units/ml) or QGR (100 or 200 μM/ml) washed with PBS, re-suspended at a concentration of 2×10^5 cells/ml in PBS and subjected (100 μl/slide) to cytospin for 5 min at 1,000 rpm (Cytospin3; Shandon, ThermoElectron, Waltham, Mass., USA). All slides were fixed using cold methanol. Wright-Giemsa stain was performed for morphologic analysis. Immunocytochemistry against TER-119 was carried out for cellular lineage with 100-fold dilution according to the manufacturer's instruction using avidin biotinylated enzyme complex kit (VECTASTAIN, Vector Laboratories and Burlingame, Calif., USA).

Test [2] has as its system lipopolysaccharide (LPS)-stimulated RAW 264.7 macrophage cells. The conditions noted are these: cited from earlier work.
Test [3] deals with BMNCs. Description: Semisolid colonogenic assay (BFU-E colonies). It is filed as cell-based, mouse. The protocol:
To investigate the effects of QGR on erythroid lineage development in mouse HSCs and EPCs, the colonogenic assay was performed according to the manufacturer's instruction in triplicate by plating 2×10^5 cells/plate using methylcellulose stock solution in IMDM (R&D Systems) with cocktail (rIL-3 100 units/ml plus rSCF 5 units/ml plus rEpo 3 units/ml) or/and QGR (0, 100 or 200 μM/ml) in 35 mm-diameter cell culture plates. These plates were put in 100 mm-diameter plates with 3 ml of autoclaved distilled water and incubated at 37° C. in 5% CO2 humidity air. 14 days later, BFU-E colonies were counted under an Axiovert 40 CFL inverted microscope (Carl Zeiss, Oberkochen, Germany).

In test [4] the test system is unopsonized zymosan-stimulated human monocytes. The conditions noted are these: cited from earlier work.
Test [5] has as its system bone marrow failure mouse induced by busulphan (BU). Description: Colony-forming unit-fibroblast (CFU-F) measurement from MSPCs in BU bone marrow failure model. Type of test: in vivo, Balb/c mice. The conditions noted are these: decreased from day 10 in positive control group; p<0.05. How it is done:
Bone marrow failure model induced by administering busulphan (BU) was designed according to the procedures previously described by Molyneux et al (Cell Biol Toxicol 27, 13-40, 2011) and the scheme is shown in FIG. 8. BU (Sigma chemicals, Poole, Dorset, UK) was dissolved in acetone to a final concentration of 18.8 mg/ml, diluted five-fold with distilled water, and was intraperitoneally administered three times for 5 days with the dose of 0.2 ml BU solution per mouse. Equal amount of five-fold diluted acetone solution without BU was administered to vehicle control group. QGR was dissolved in dimethylsulfoxide and diluted with distilled water to a final concentration of 1.25%. Mice were orally administered every two days with QGR (0.25 mg/mouse) for 63 days. […]
CFU-F, a progenitor cell colony differentiated from MSPCs is in the stage prior to being finally matured into mesenchymal cells such as osteoblast, vascular endothelial cells acting as hematopoietic stem cell niche. In order to investigate the effect of QGR on the formation and differentiation of mesenchymal stem cells, MSPCs were isolated and the number of CFU-F colonies of the respective groups was measured and compared to each other. […] All visible colonies were counted.

The test system is the same in test [6]. Description: Flow cytometric analysis of bone marrow cells in BU bone marrow failure model. It is filed as in vivo, Balb/c mice. The protocol:
Bone marrow failure model induced by administering busulphan (BU) was designed according to the procedures previously described by Molyneux et al (Cell Biol Toxicol 27, 13-40, 2011) and the scheme is shown in FIG. 8. BU (Sigma chemicals, Poole, Dorset, UK) was dissolved in acetone to a final concentration of 18.8 mg/ml, diluted five-fold with distilled water, and was intraperitoneally administered three times for 5 days with the dose of 0.2 ml BU solution per mouse. Equal amount of five-fold diluted acetone solution without BU was administered to vehicle control group. QGR was dissolved in dimethylsulfoxide and diluted with distilled water to a final concentration of 1.25%. Mice were orally administered every two days with QGR (0.25 mg/mouse) for 63 days. Seven or eight mice were sacrificed on days of 1, 5, 10, 16, 25, 40, 49, and 63 after BU administration and were investigated to confirm the effect of QGR to recover bone marrow failure.
In order to investigate whether QGR has an activity to recover bone marrow failure induced by BU administration, the expression of markers associated with hematopoietic stem cells/progenitors (Sca-1^+ or c-kit^+), bone mesenchymal stem/progenitor cells (Sca-1^+CD44^+), apoptotic hematopoietic stem cells (c-Kit^+7-aminoactinomycin D^+) were measured by flow cytometry. The retrieved BMNCs with the concentration of 0.6×10^6 cells/ml were precipitated by centrifugation, re-suspended in 100 μl of PBS containing 0.02% sodium azide and 2% FBS, and incubated with 10 μl of mouse anti-CD16/CD32 Ab (eBioScience, San Diego, Calif., USA) as FC receptor blocker for 3 min at room temperature. After that, monoclonal antibodies for c-kit (2B8, BD Pharmingen, USA), Sca-1 (D7, eBioscience), CD44 (IM7, eBioscience) were added and further incubated for 30 min under the temperature of 4° C. Isotype-matched irrelevant rat IgG2b-FITC (eBioscience) and isotype-matched irrelevant rat IgG2a-PE (eBioscience) were used as negative control. The flow cytometric analysis was carried out using FACS Calibur (Becton Dickinson, Oxnard, Calif., USA) and the percentage of positively stained cells was determined. The double staining of c-kit and 7-AAD (Calbiochem-Novabiochem, Nottingham, UK) was carried out according to the procedures previously described by Philpott et al (Exp Hematol, 23, 1642-1648, 1995).
(In general: In flow cytometry, cells or beads pass a laser one at a time.)

Each structure is given as a SMILES string.

`CC1OC(Oc2c(-c3ccc(O)c(O)c3)oc3cc(O)cc(O)c3c2=O)C(OC(=O)c2cc(O)c(O)c(O)c2)C(O)C1O` (stereo not drawn) [QGR, quercetin 3-O-β-(2″-galloyl)-rhamnopyranoside]: in test [1] (Wright-Giemsa staining), the “number of enucleated erythroid cells” value is given as “increased”. Also, in test [1] (vs negative control), the “TER-119+ cells (immunocytochemical analysis)” value is on record as “increased”. In addition, the nitric oxide production entry in test [2] is “inhibiting”. For the same compound, in test [3] (cocktail (rIL-3, rSCF and rEpo) plus 200 μM QGR, p<0.01), the “formation and growth of BFU-E colonies compared with the positive control” value is recorded as 1.43 fold. In addition, the “number of BFU-E colonies compared with negative control” value in test [3] (day 14, 100 or 200 μM/ml for QGR, dose-dependent) is listed as “significantly enhanced”. The “number of BFU-E colony compared with positive control” value in test [3] (day 14, QGR alone vs rIL-3+rSCF+rEpo) was “smaller than that of positive control”. In test [4], the superoxide production result was “inhibiting”. Also, the “number of CFU-F” value in test [5] was “recovered significantly”. Further, the “number of cells positive for Sca-1 (HSPCs)” value in test [6] (after 10 days of QGR administration, vs positive control group) is on record as “increased”. In test [6] (at 10 days after QGR administration, significant difference from positive control at 16 days), the “number of c-kit positive cells (HSPCs)” value was “increased”. For the same compound, the “number of MSPCs (CD44+Sca-1+ cells)” value in test [6] (time course, remarkably decreased in positive control group) is on record as “no change”. The “number of apoptotic HSPCs” value in test [6] (time course, significantly increased from 10 days in positive control group) is “no change”.
